According to US10647677B2, “Analogues of hydroxychloroquine (HCQ) without retinal toxicity” (Inoviem Scientific, priority 2015, dated 2020):
“Also recorded” adds a separate entry of the source. Where two headings read alike, the source gives them in different places.

Columns and labels:
myeloperoxidase (MPO) = target: T1, myeloperoxidase (MPO) (Homo sapiens, UniProt P05164); assay: Surface plasmon resonance (Biacore 3000) affinity on MPO; assay type: binding; details: SPR at 25° C.
T1 construct: purchased
T1 sequence (P05164 49-745): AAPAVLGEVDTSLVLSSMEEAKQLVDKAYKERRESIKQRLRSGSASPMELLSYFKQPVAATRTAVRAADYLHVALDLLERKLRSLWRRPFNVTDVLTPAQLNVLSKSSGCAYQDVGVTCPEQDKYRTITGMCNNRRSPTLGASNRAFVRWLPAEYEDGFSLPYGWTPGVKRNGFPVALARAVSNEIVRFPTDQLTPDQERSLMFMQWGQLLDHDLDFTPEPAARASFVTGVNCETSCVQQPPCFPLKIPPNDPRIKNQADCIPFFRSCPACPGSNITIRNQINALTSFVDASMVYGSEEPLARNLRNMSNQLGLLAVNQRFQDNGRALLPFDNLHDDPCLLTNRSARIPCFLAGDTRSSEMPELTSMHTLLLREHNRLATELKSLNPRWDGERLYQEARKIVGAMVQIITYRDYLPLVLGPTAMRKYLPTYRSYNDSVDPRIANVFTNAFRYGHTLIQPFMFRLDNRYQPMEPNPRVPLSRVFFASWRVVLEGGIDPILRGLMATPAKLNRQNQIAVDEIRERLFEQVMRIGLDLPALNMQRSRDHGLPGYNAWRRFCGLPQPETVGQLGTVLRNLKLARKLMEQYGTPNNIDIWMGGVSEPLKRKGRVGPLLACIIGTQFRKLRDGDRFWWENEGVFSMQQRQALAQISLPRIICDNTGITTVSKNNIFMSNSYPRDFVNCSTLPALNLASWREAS
Procedure: (§1) Using the surface plasmon resonance technology (Biacore 3000), the interaction constants between HCQ analogues (HCQa) and myeloperoxidase (MPO) targets and αB-crystalline (αB-C) were measured at 25° C. according to 12 different series of experiments. First, HCQ analogues at five different concentrations (10^−6 to 10^−8 M) were injected at a rate of 10^−6 L/min for 250 s on the MPO and αB-C targets as well as on the ERK1 and ERK2 controls, followed by a dissociation phase of 150 s.
(§2) The kinetic parameters were measured using the BIAevaluation 4.1 software. The set of resonance unit values obtained with the controls were subtracted from those obtained with MPO and αB-C to compensate for non-specific bonds.
(§3) The differences in Kd values for the myeloperoxidase (MPO) and αB-crystalline (αB-C) enzymes in Tables 1 and 2 are due to the variability of commercial batches. Nevertheless, the difference between the Kd of the compounds HCQ and CB137 remains identical according to these two tests.
(§4) Analysis of the compounds in the form of sulphate salts according to the method described above: […]

[1] = tested on: C57Bl/6 mice, pulmonary vasculitis induced by immune complexes; assay: Pulmonary vasculitis induced by immune complexes: histological analysis of lung sections; assay type: in vivo; details: per os before induction; HCQ 10 mg/kg, CB137 10, 30 or 100 mg/kg (FIG. 6)
Procedure: Female C57Bl/6 strain mice from the Jackson Laboratory, 8-10 weeks old and weighing about 20 g, are used in all experiments. The mice are maintained at a temperature of 23° C.±1° C. with 12-hour light/dark cycle. Mice have access to water and food ad libitum and are housed at least one week before the beginning of any experiments.
A retro-orbital blood sampling was performed using capillaries containing heparin on mice anesthetized with isoflurane the day before the manipulation. The next day, the mice were anesthetized with a mixture of ketamine and xylasin (90 mg/kg and 125 mg/kg, respectively). The immune IgG complex is induced in the lungs by intratracheal instillation of 0.5 mg of anti-BSA rabbit antibody (MP Biomedicals, Strasbourg, France) and by the administration of 0.5 mg per mouse of BSA antigen in the caudal vein (Warner et al., 2001 and Warren et al., 1989). The specified treatment (PF-1355, CB137 or solvent alone) is administered enterally. The animals are euthanized 4 hours after intratracheal instillation. […]
The lung sections are examined under a light microscope (Axio LabA1 by Zeiss brand) to assess the intensity of the neutrophil influx and the level of hemorrhage, and to identify the structural alterations. A minimum of 10 fields at 400× magnification is analyzed per animal. […]

αB-crystalline (αB-C) = target: T2, αB-crystalline (αB-C) (Homo sapiens, UniProt P02511); assay: Surface plasmon resonance (Biacore 3000) affinity on αB-crystalline; assay type: binding; details: SPR at 25° C., read-out: Kd (M) on crystallin
T2 construct: purchased
T2 sequence (P02511 1-175): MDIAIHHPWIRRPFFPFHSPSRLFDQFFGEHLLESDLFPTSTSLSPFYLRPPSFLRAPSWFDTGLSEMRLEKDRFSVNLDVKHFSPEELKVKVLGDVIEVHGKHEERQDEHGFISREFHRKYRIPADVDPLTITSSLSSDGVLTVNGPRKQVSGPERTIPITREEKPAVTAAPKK
Procedure: as §1, §2, §3, §4

[2] = Table 2, compounds in the form of sulphate salts

SMILES	Kd (myeloperoxidase (MPO); Table 1) [µM]	Kd (myeloperoxidase (MPO); [2]) [µM]	inhibition of pulmonary vasculitis / pulmonary inflammation induced by immune complexes (lung sections) [1]	Kd (αB-crystalline (αB-C); Table 1) [M]	Kd (αB-crystalline (αB-C); [2]) [M]
CCN(CCO)CCCC(C)Nc1ccnc2cc(Cl)ccc12 (stereo not shown) [Commercial HCQ, hydroxychloroquine]	0.71	4	inhibiting pulmonary vasculitis	2.2e-08	1e-06
CCN(CCO)CCCC(C)Nc1c(Cl)cnc2cc(Cl)ccc12 (stereo not shown) [CB137]	0.00659	0.06	inhibiting pulmonary vasculitis; also recorded: limits pulmonary inflammation	1.75e-07	3e-05
